Data set [1] relates to NK cells. Briefly: Feeder-free culture of CD3/CD19 depleted PBMC with IL-15 and GSK3 inhibitor: NK cell expansion and phenotype. Format: cell-based, human. How it is done:
NK Cell Isolation. Healthy adult donor blood was obtained from commercial sources or from GCRC core laboratory of Scripps Research Institute, La Jolla, CA Peripheral blood mononuclear cells (PBMC) were isolated by density gradient centrifugation using Ficoll-Paque PLUS (GE Healthcare: Life Sciences) and then depleted of B and T cells without culturing the PBMC using CD19 Microbeads (Miltenyi Biotec, #130-050-301) and CD3 Microbeads (Miltenyi Biotec, #130-050-101) within 24 to 36 hours according to manufacturer directions.
NK cell culture: CD3/CD19 depleted PBMC (0.5-1×10E6/mL) were cultured in BO medium (2:1 mixture of DMEM, (Corning Cell-Gro #10-017-CV) and Ham's F12 (Corning Cell-Gro #10-080-C) with 10% human AB serum (Valley Biomedical, #HP1022), 100 U/mL penicillin and 100 ug/mL streptomycin (Corning, 30-002-CI), 20 uM 2-mercaptoethanol (Sigma, M3148), 50 uM ethanolamine (Sigma, E0135), 10 ug/mL ascorbic acid (Sigma, A4544), and 1.6 ng/mL sodium selenite (Sigma, S5261). Cells were cultured for 7-8 days (up to four weeks) in medium containing 10 ng/mL recombinant human IL-15 (Life Technologies, PHC9154) with or without GSK3 inhibitor CHIR99021 (BioVision #1677-5), histone lysine methyltransferase inhibitor BIX 01294 (Tocris, 3364), TGF-β1 receptor inhibitor SB-431542 (BioVison, 1674-5), or human interferon alpha (R&D Systems, 11200-1). After culturing, cells were counted using trypan blue or by Cellometer (Nexcelom) and used for flow cytometry and functional assays. Flow cytometry was performed on a BD LSRFortessa and results were analyzed by FlowJo software. Commercially available antibodies to the following surface markers were used for flow cytometry: CD3, CD14, CD16, CD19, CD56, CD57 and NKG2C (BD Biosciences, Biolegend, or R&D Systems). Where indicated, K562 feeder cells were used. Where indicated other modulators and culture reagents were added.
One aspect of the present invention is to provide a method and a system to culture, expand and/or modulate NK cells for adoptive cell therapy. In some embodiments, the method and system for culturing, expanding and/or modulating NK cells is without the use of feeder cells, or feeder cell conditioned medium. Peripheral blood mononuclear cells (PBMC) were isolated from healthy adult donors. The isolated apheresis product (Day 0, pre-depletion; FIG. 2A) was T and B cell depleted using anti-CD19 and CD3 antibodies without pre-depletion culturing (Day 0, post-depletion; FIG. 2B). The post-depletion cell population was then cultured in a feeder free condition with the presence of recombinant human IL-15 (10 ng/mL) and 5 μM CHIR99021, a GSK3 inhibitor, for about 3 to 7 days.

Data set [2] relates to K562 tumor cells and allogeneic PBMC. Briefly: Dual-target cytotoxicity assay, K562 tumor cells mixed with allogeneic PBMC. Format: cell-based, human. The note with it: GSK3i modulated NK cells; 3-4 NK cell donors per PBMC donor. How it is done:
Cytotoxicity of GSK3i modulated NK cells against allogeneic PBMC was evaluated in combination with K562 tumor cells in a dual-target cytotoxicity assay. Percent specific killing in PBMC+K562+overnight primed NK cells or PBMC+K562+GSK3i modulated NK cells was measured.

Data set [3] deals with primary AML blasts. Briefly: NK cell cytotoxicity against primary AML blasts. Type of data set: cell-based, human. Particulars: multi-day IL-15 + GSK3i NK cells vs overnight primed. How it is done: NK Cell Cytotoxicity Assay: Cytotoxicity was determined using a flow cytometry based method based on a previously published method (Kim, et al. J Immunol Methods. 2007 Aug. 31; 325(1-2): 51-66). NK cells were co-cultured with e450-proliferation dye-labelled targets for 4 hours. CellEvent™ Caspase-3/7 Green Flow Cytometry Assay Kit (Lifer Technologies) was used to assay for cell death among target cells, and samples were read on a BD LSRFortessa cytometer. Killing of SKOV-3 targets was quantified using the Incucyte Zoom instrument. SKOV-3 cells were transiently transduced with NucLight-Red BacMam reagent (Essen Biosciences) and co-cultured with the indicated NK cell populations for 74 hours, with images taken on two hour intervals. Caspase 3/7 activity was monitored to indicate target cells undergoing apoptosis using the CellEvent™ Caspase-3/7 Green Detection Reagent. The number of target cells was normalized to SKOV-3 cells cultured alone, and targets undergoing apoptosis were quantified based on caspase 3/7 activity.
Cytotoxicity of CD3/CD19 depleted PBMC cultured multiple days with IL-15 and GSK3i (GSK3i modulated NK cells) versus overnight primed NK cells against primary AML blasts were also compared. Percent specific killing of primary AML blasts from multiple patients was measured by flow cytometry-based cytotoxicity assay.

The subject of data set [4] is NK cells. Briefly: Maintenance of modulated NK cell phenotype after transfer into NSG mice. Type of data set: in vivo. How it is done: The mice received only IL-15 with no GSK3i. It was shown that NK cells cultured in vitro with GSK3i for 7 days maintain their phenotypic changes in vivo for at least one week after being transferred and without the presence of the small molecule. CD57 remains high representing the maturity of the NK cells which was not the case when the cells were cultured without GSK3i (FIGS. 9A and 9B).

[5] abbreviates: 7 day culture with GSK3 inhibitor vs cultured without GSK3i.
Setting [6] is: Day 7 GSK3i culture vs overnight primed.

Each structure is given as a SMILES string.

This note sets out measurements from patent US12281329B2, “Compositions and methods for immune cell modulation in adoptive immunotherapies” (Fate Therapeutics, Inc., priority 2016, dated 2025).

Consider `Cc1c[nH]c(-c2cnc(NCCNc3ccc(C#N)cn3)nc2-c2ccc(Cl)cc2Cl)n1` [CHIR99021], for which, in data set [1] (7 day culture with GSK3i vs 7 day without GSK3i), the “percentage of CD57+ cells in the total NK populations” value is listed as “increased”. Further, in data set [1] (setting [5]), the “CD57+ NK cell number, increase on average” value was 7-8 fold and the “CD57+NKG2C+ NK cell number, increase on average” value is 7-8 fold. The “NK cell (CD56+CD3−) percentage in population” value in data set [1] (Day 7, IL-15 10 ng/mL + 5 μM CHIR99021, feeder free, about 20% post-depletion Day 0) is on record as “about 99%”. The “remaining T cells (CD56-CD3+) percentage in population” value in data set [1] (Day 7, IL-15 10 ng/mL + 5 μM CHIR99021, about 1% post-depletion) is given as 0.25%. For the same compound, in data set [1] (setting [6]), the “cell number of CD57+ NK subset, increase on average” value was 5-6 fold and the “cell number of CD57+NKG2C+ NK subset, increase on average” value is 5-6 fold. Besides, the “frequency of CD57+ cells in the culture” value in data set [1] (short term treatment, 16 hours, comparable to vehicle) is “did not generate a higher frequency”. Besides, the “percent specific killing of K562 versus allogeneic PBMC” value in data set [2] is “selectively target those cells among normal cells”. Moreover, in data set [3], the “percent specific killing of primary AML blasts” value is “highly and consistently effective”. The “CD57 on NK cells from peripheral blood” value in data set [4] (7 days after transfer of 7 day IL15+GSK3i cultured NK cells, mice received only IL-15) is “remains high”. Also, the “CD16 and NKG2C+/CD57+ on transferred NK cells” value in data set [4] (7 days after transfer, without small molecule) was “maintained in vivo”.
